Measured values published in PMC5923425, “Structural analysis of human ARS2 as a platform for co-transcriptional RNA sorting” (Nature Communications, 2018).

T1: NCBP3 (full-length, residues 1–620) (Homo sapiens, UniProt Q53F19)
T1 construct: full-length residues 1-620, pFASTBac HTb, expressed in High Five insect cells, N-terminal His6 tag cleaved with TEV
T1 sequence (Q53F19 1-620): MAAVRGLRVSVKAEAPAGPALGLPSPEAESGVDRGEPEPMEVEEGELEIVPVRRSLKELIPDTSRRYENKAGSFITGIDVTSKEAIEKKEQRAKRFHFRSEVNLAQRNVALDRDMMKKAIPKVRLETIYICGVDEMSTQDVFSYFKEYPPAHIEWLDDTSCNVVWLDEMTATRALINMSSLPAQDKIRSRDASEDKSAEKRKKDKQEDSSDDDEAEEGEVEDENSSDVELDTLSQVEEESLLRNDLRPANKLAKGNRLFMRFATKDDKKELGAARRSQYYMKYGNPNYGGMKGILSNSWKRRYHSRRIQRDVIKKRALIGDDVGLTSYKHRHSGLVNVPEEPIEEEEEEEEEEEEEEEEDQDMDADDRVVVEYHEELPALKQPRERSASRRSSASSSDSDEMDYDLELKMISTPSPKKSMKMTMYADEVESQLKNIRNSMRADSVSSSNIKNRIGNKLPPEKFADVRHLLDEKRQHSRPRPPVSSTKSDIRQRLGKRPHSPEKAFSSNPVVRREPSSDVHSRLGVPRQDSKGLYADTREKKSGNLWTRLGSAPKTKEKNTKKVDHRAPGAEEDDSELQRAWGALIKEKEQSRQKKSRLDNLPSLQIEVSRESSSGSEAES

T2: CBP20 (Homo sapiens, UniProt P52298)
T2 construct: gene NCBP2; CBP20 alone, recombinant, purified as described previously
T2 sequence (P52298 2-156): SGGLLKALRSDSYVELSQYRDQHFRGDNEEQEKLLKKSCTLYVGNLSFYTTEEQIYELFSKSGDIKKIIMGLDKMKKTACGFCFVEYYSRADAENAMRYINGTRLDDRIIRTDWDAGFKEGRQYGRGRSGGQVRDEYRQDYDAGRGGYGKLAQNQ

T3: NCBP3/2xCBP80 (Homo sapiens, UniProt Q53F19)
T3 construct: full-length NCBP3 (insect cells, tag cleaved) with CBP80 added (2x, apparently molar excess)
T3 sequence (Q53F19 1-620): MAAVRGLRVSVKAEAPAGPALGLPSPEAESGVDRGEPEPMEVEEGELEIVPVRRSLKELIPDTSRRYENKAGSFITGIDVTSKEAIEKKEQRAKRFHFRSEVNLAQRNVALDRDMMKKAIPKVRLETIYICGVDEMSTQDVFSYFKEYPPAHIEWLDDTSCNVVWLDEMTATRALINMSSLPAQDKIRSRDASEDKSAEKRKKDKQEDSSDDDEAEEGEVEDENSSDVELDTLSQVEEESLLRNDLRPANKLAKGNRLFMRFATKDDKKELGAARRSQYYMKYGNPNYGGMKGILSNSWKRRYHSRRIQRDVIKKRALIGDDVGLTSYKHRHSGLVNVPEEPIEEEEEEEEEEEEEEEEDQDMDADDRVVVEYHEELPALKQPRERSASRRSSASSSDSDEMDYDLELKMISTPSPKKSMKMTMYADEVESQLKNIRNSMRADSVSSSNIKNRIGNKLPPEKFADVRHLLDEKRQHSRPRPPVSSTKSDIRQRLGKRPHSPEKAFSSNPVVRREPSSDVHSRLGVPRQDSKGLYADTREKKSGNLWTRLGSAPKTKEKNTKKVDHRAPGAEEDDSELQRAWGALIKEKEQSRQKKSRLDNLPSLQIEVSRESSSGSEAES
T3 sequence (Q09161 20-790 partner limits assumed): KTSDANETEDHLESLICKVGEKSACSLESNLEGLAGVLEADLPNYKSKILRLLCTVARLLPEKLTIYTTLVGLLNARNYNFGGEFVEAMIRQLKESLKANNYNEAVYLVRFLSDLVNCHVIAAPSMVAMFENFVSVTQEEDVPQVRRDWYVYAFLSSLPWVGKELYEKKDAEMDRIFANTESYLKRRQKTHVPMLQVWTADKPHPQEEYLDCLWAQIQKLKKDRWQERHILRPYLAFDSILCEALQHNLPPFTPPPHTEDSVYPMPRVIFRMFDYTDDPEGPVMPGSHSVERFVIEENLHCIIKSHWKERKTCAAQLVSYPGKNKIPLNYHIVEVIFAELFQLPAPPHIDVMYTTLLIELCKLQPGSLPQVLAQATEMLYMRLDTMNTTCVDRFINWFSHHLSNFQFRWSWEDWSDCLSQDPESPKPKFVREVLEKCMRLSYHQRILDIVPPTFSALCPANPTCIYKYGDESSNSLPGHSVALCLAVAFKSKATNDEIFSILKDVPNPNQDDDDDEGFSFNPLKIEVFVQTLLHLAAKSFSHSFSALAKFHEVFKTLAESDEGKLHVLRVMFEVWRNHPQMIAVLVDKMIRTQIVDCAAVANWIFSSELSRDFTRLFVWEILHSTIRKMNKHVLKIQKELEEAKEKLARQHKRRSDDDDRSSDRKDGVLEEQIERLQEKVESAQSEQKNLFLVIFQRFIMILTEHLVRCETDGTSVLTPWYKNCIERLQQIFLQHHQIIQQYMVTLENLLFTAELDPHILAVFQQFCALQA

T4: CBP20/2xCBP80 (CBC) (Homo sapiens, UniProt P52298)
T4 construct: gene NCBP2; CBP20-CBP80 heterodimer, CBP80 added 2x (apparently molar excess)
T4 sequence (P52298 2-156): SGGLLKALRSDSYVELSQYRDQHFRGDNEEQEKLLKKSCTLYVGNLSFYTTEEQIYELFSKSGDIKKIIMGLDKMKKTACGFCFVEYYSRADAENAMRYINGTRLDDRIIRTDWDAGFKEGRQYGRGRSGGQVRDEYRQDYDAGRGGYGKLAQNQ
T4 sequence (Q09161 20-790 partner limits assumed): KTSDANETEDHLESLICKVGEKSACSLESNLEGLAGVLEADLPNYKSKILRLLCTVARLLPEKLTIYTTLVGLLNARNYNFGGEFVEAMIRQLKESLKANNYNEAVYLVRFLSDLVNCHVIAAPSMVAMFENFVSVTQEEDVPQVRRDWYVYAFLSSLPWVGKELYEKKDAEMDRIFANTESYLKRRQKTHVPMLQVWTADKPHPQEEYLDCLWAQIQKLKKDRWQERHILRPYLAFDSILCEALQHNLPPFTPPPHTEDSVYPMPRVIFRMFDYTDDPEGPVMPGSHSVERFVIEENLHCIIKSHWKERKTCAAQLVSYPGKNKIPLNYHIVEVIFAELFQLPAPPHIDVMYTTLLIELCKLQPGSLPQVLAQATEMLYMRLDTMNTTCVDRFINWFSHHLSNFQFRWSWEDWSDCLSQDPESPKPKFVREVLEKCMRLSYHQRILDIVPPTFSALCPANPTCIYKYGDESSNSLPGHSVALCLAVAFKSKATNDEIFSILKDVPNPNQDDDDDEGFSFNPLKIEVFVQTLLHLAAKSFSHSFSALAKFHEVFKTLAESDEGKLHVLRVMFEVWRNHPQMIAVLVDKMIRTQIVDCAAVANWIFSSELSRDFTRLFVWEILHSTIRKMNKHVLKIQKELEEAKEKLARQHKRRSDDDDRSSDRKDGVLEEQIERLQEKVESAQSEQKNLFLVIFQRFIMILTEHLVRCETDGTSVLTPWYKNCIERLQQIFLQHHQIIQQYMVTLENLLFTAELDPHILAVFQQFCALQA

T5: NCBP3 1–282 (Homo sapiens, UniProt Q53F19)
T5 construct: N-terminal region with putative RRM domain, residues 1-282, pETM11, E. coli Rosetta 2, His6 tag cleaved with TEV
T5 sequence (Q53F19 1-282): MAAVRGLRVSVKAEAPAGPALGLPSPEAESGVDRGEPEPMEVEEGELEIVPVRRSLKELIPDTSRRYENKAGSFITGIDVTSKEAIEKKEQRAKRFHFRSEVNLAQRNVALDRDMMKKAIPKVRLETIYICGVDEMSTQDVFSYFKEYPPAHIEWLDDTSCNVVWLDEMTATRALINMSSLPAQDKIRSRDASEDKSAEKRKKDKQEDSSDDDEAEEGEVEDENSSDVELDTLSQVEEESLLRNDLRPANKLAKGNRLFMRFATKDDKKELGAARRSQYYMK

T6: ARS2^147–871 (human, UniProt Q9BXP5-4 147-871)
T6 construct: human ARS2 (SRRT) isoform-e, 871 residues, residues 147-871, cloned into pETM11; also called hARS2; SRRT; source: E. coli Rosetta 2, purified (Ni-Sepharose, TEV cleavage, HiTrap Q, heparin if necessary, SEC); not shown: His6, N-terminal, cleaved
T6 sequence (looked up): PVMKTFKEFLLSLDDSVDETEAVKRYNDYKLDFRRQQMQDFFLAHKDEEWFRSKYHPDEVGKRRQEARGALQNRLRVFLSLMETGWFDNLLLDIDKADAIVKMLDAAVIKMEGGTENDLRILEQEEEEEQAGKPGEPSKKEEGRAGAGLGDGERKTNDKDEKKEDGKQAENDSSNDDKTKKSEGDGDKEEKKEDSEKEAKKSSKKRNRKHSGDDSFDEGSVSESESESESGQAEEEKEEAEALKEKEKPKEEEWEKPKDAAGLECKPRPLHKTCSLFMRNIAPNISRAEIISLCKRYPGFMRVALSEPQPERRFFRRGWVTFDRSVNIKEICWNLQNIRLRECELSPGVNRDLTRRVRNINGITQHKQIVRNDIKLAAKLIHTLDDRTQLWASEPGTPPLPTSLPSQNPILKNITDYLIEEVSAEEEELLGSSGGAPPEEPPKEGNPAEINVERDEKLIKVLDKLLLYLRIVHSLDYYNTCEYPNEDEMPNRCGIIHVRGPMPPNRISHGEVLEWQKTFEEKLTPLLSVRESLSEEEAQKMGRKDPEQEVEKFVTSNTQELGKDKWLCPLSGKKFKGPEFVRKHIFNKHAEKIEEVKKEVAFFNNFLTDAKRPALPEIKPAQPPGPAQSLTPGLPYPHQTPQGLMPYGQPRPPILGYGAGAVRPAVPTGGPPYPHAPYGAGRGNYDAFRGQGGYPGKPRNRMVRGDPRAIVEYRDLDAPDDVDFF


What was measured:
[1] = target: T1, NCBP3 (full-length, residues 1–620); test: isothermal titration calorimetry; format: binding
From the text: isothermal titration calorimetry on NCBP3 (full-length, residues 1–620)

[2] = target: T2, CBP20; test: isothermal titration calorimetry; format: binding; settings: 250 mM NaCl, 20 mM HEPES, 2 mM TCEP, pH 7.8, 25 °C; CBP20 without CBP80
From the text: isothermal titration calorimetry on CBP20

[3] = target: T3, NCBP3/2xCBP80; test: isothermal titration calorimetry; format: binding
From the text: isothermal titration calorimetry on NCBP3/2xCBP80

[4] = target: T4, CBP20/2xCBP80 (CBC); test: isothermal titration calorimetry; format: binding; settings: 250 mM NaCl, 20 mM HEPES, 2 mM TCEP, pH 7.8, 25 °C; CBP80 present (2x)
From the text: isothermal titration calorimetry on CBP20/2xCBP80 (CBC)

[5] = target: T5, NCBP3 1–282; test: isothermal titration calorimetry; format: binding
From the text: isothermal titration calorimetry on NCBP3 1–282

[6] = target: T6, ARS2^147–871; test: pull-down; GST–FLASH 903–943 (or GST as control) immobilised on glutathione sepharose, incubated with purified ARS2 constructs 30 min at 10 °C; flow-through, wash and elution on Coomassie-stained SDS-PAGE; settings: both partners purified

Kd [1] [µM]	Kd [2] [µM]	Kd [3] [µM]	Kd [4] [µM]	Kd [5] [µM]	binding result [6]	Molecule
4.6 ± 1	84 ± 4.2	7.9 ± 0.9	0.37 ± 0.04	8.3 ± 3	–	C[n+]1cn([C@@H]2O[C@H](COP(=O)(O)OP(=O)(O)OP(=O)(O)O)[C@@H](O)[C@H]2O)c2nc(N)[nH]c(=O)c21 [m^7GTP]
–	–	–	–	–	binds	SDLNKENQKPIYKSDKCTEADTCKNSPLDELEEGEIRSDSE (domain or fragment, UniProt Q9UKL3 903-943, looked up, FLASH (FLICE-associated huge protein), residues 903-943, holds FARB; cloned into the GST-vector pETM30; source: E. coli, expressed and purified; immobilised on glutathione sepharose) [GST–FLASH^903–943]
